# Like-named read-outs stand apart in the source and are kept apart here. Starred links: 1 amine or outer side, 2 acyl side, 3 side chain; linkers in the order of their positions; H or OH if unused. Non-standard residues stand in square brackets, D forms with d. Groups on a side chain read outwards from the residue. *: point of attachment. C20 diacid = O=C(O)CCCCCCCCCCCCCCCCCCC(=O)*; C18 diacid = O=C(O)CCCCCCCCCCCCCCCCC(=O)*; γGlu = O=C(O)[C@H](CCC(=O)[*:2])N[*:1]; εLys = N[C@@H](CCCCN[*:1])C(=O)[*:2]; AEEA = NCCOCCOCC(=O)O; Aib = CC(C)(N)C(=O)O
# Tests used:
# Assay type in all cases: cell-based
# Conditions in all cases: CreLuc reporter gene assay
# [1] = biological target: T1, hGLP1R (Homo sapiens, UniProt P43220); assay: hGLP1R CreLuc reporter gene assay in 0.5% and 100% plasma
# T1 construct: expressed in transfected cells; host or cells: HEK-293 cells carrying a CRE-luciferase reporter gene
# Procedure, shortened: (§1)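 HEK-293 cells co-expressing GLP-1 or NPY2 receptor and CHO cells expressing GIP receptor, each carrying a CRE-driven luciferase reporter, were stimulated with peptides for 4 hours at 37 °C. Luminescence was read after Bright-Glo addition. EC50 came from 8-point, four-decade curves fitted by variable-slope non-linear regression.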
# [2] = biological target: T2, hGIPR (Homo sapiens, UniProt P48546); assay: hGIPR CreLuc reporter gene assay in 0.5% and 100% plasma
# T2 construct: expressed in transfected cells; host or cells: CHO cells carrying a CRE-luciferase reporter gene
# T2 sequence (P48546 22-466): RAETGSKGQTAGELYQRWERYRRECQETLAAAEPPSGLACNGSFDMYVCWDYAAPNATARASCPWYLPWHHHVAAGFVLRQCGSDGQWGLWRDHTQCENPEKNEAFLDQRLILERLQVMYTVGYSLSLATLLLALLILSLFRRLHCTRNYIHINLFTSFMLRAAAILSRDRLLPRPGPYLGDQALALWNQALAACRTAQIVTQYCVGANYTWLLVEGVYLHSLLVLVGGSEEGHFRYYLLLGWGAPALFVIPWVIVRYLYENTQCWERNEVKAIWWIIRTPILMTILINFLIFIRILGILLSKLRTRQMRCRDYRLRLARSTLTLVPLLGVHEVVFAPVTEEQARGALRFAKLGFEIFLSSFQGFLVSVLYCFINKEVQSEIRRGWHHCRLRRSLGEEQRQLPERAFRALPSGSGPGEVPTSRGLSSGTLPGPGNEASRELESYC
# Procedure, shortened: as §1
# [3] = biological target: T3, hNPY2R (Homo sapiens, UniProt P49146); assay: hNPY2R CreLuc reporter gene assay in 0.5% and 100% plasma
# T3 construct: expressed in transfected cells; host or cells: HEK-293 cells carrying a CRE-luciferase reporter gene
# T3 sequence (P49146 1-381): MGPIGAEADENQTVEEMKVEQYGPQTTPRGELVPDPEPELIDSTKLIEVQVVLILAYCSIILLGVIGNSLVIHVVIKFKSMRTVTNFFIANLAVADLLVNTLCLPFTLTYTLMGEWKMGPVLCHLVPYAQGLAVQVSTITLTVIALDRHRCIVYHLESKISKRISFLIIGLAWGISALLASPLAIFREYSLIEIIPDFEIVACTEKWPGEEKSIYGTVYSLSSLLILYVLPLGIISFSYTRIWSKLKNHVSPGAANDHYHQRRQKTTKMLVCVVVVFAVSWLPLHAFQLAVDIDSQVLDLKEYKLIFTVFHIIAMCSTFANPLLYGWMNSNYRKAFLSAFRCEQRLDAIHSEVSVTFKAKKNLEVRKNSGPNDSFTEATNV
# Procedure, shortened: as §1
# [4] = 0.5% human plasma, read-out: hGLP1R 0.5% hP
# [5] = 0.5% human plasma, read-out: hGIPR 0.5% hP
# [6] = 100% human plasma, read-out: hGIPR 100% hP
# [7] = 0.5% human plasma, read-out: hNPY2R 0.5% hP
# [8] = 100% human plasma, read-out: hGLP1R 100% hP
# [9] = 100% human plasma, read-out: hNPY2R 100% hP
# T1 sequence (P43220 24-463): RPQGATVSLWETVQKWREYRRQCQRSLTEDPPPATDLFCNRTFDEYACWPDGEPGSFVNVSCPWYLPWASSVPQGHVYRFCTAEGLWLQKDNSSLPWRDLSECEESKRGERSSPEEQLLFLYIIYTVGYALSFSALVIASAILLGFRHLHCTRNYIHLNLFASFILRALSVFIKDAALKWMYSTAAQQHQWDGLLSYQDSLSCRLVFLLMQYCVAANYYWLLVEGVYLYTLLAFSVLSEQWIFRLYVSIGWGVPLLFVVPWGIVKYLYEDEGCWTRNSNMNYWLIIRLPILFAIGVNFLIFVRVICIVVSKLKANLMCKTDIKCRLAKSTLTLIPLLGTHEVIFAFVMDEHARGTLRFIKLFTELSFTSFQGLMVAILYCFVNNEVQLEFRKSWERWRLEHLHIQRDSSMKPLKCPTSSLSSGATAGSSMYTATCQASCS
Substance,"EC50 [1, 4]","EC50 [2, 5]","EC50 [2, 6]","EC50 [3, 7]","EC50 [1, 8]","EC50 [3, 9]"
"H-Y[Aib]EGTFTSDYSI[Aib]LEKQAQ[Aib]AFVEWLIK([εLys-γGlu-γGlu-γGlu-γGlu-γGlu-C18 diacid])GGPSEPASLRHYYNWLTRQRY-NH2 [Compound 263, Y-Aib-E-G-T-F-T-S-D-Y-S-I-Aib-L-E-K-Q-A-Q-Aib-A-F-V-E-W-L-I-K(1,3)-GGPSEPASLRHYYNWLTRQRY-NH2.C18DA-gGlu-gGlu-gGlu-gGlu-gGlu-eLys(1,2)]",320 pM,120 pM,1500 pM,15800 pM,–,–
"H-Y[Aib]EGTFTSDYSI[Aib]LEKQAQ[Aib]AFVQWLIK([AEEA-AEEA-γGlu-γGlu-γGlu-γGlu-C18 diacid])GGPEEGASLRHYYNWLTRQRY-NH2 [Compound 146, Y-Aib-E-G-T-F-T-S-D-Y-S-I-Aib-L-E-K-Q-A-Q-Aib-A-F-V-Q-W-L-I-K(1,3)-GGPEEGASLRHYYNWLTRQRY-NH2.C18DA-gGlu-gGlu-gGlu-gGlu-OEG-OEG(1,2)]",140 pM,770 pM,730 pM,14000 pM,–,–
"H-Y[Aib]EGTFTSDYSI[Aib]LEKQAQ[Aib]AFVQWLIK([AEEA-AEEA-Glu-Glu-Glu-Glu-C18 diacid])GGPESGASLRHYYNWLTRQRY-NH2 [Compound 52, Y-Aib-E-G-T-F-T-S-D-Y-S-I-Aib-L-E-K-Q-A-Q-Aib-A-F-V-Q-W-L-I-K(1,3)-GGPESGASLRHYYNWLTRQRY-NH2.C18DA-E-E-E-E-OEG-OEG(1,2)]",90 pM,120 pM,650 pM,18700 pM,3170 pM,–
"H-Y[Aib]EGTFTSDYSI[Aib]LEKQAQ[Aib]AFVEWLIK([AEEA-AEEA-γGlu-γGlu-γGlu-γGlu-C20 diacid])GGPSEPASLRHYYNWLTRQRY-NH2 [Compound 226, Y-Aib-E-G-T-F-T-S-D-Y-S-I-Aib-L-E-K-Q-A-Q-Aib-A-F-V-E-W-L-I-K(1,3)-GGPSEPASLRHYYNWLTRQRY-NH2.C20DA-gGlu-gGlu-gGlu-gGlu-OEG-OEG(1,2)]",240 pM,430 pM,–,–,–,46300 pM
"H-Y[Aib]EGTFTSDYSI[Aib]LEKQAQ[Aib]AFVEWLIK([γGlu-γGlu-γGlu-γGlu-C18 diacid])GGPSEGASLRHYYNWLTRQRY-NH2 [Compound 294, Y-Aib-E-G-T-F-T-S-D-Y-S-I-Aib-L-E-K-Q-A-Q-Aib-A-F-V-E-W-L-I-K(1,3)-GGPSEGASLRHYYNWLTRQRY-NH2.C18DA-gGlu-gGlu-gGlu-gGlu(1,2)]",80 pM,210 pM,890 pM,–,–,55200 pM
"H-Y[Aib]EGTFTSDYSI[Aib]LEKQAE[Aib]AFVQWLIK([εLys-γGlu-γGlu-γGlu-γGlu-γGlu-C20 diacid])GGPSEGASLRHYYNWLTRQRY-NH2 [Compound 200, Y-Aib-E-G-T-F-T-S-D-Y-S-I-Aib-L-E-K-Q-A-E-Aib-A-F-V-Q-W-L-I-K(1,3)-GGPSEGASLRHYYNWLTRQRY-NH2.C20DA-gGlu-gGlu-gGlu-gGlu-gGlu-eLys(1,2)]",480 pM,370 pM,–,12100 pM,–,–
"H-Y[Aib]EGTFTSDYSI[Aib]LEKQAQ[Aib]AFVQWLIK([εLys-γGlu-γGlu-γGlu-γGlu-γGlu-γGlu-C20 diacid])GGPSEGVSLRHYYNWLTRQRY-NH2 [Compound 114, Y-Aib-E-G-T-F-T-S-D-Y-S-I-Aib-L-E-K-Q-A-Q-Aib-A-F-V-Q-W-L-I-K(1,3)-GGPSEGVSLRHYYNWLTRQRY-NH2.C20DA-gGlu-gGlu-gGlu-gGlu-gGlu-gGlu-eLys(1,2)]",150 pM,270 pM,–,–,–,44800 pM
"H-Y[Aib]EGTFTSDYSI[Aib]LEKQAQ[Aib]AFVEWLIK([εLys-γGlu-γGlu-γGlu-γGlu-γGlu-γGlu-C20 diacid])GGPSSPQSLRHYYNWLTRQRY-NH2 [Compound 41, Y-Aib-E-G-T-F-T-S-D-Y-S-I-Aib-L-E-K-Q-A-Q-Aib-A-F-V-E-W-L-I-K(1,3)-GGPSSPQSLRHYYNWLTRQRY-NH2.C20DA-gGlu-gGlu-gGlu-gGlu-gGlu-gGlu-eLys(1,2)]",60 pM,70 pM,620 pM,10200 pM,–,34600 pM
"H-Y[Aib]EGTFTSDYSI[Aib]LERQAQ[Aib]AFVEWLIK([εLys-γGlu-γGlu-γGlu-γGlu-γGlu-γGlu-C20 diacid])GGPSSGASLRHYYNWLTRQRY-NH2 [Compound 131, Y-Aib-E-G-T-F-T-S-D-Y-S-I-Aib-L-E-R-Q-A-Q-Aib-A-F-V-E-W-L-I-K(1,3)-GGPSSGASLRHYYNWLTRQRY-NH2.C20DA-gGlu-gGlu-gGlu-gGlu-gGlu-gGlu-eLys(1,2)]",110 pM,350 pM,2940 pM,18200 pM,–,–
"H-Y[Aib]EGTFTSDYSI[Aib]LEKQAQ[Aib]AFVEWLIK([εLys-γGlu-γGlu-γGlu-γGlu-γGlu-γGlu-C20 diacid])GGPSSGATLRHYYNWLTRQRY-NH2 [Compound 91, Y-Aib-E-G-T-F-T-S-D-Y-S-I-Aib-L-E-K-Q-A-Q-Aib-A-F-V-E-W-L-I-K(1,3)-GGPSSGATLRHYYNWLTRQRY-NH2.C20DA-gGlu-gGlu-gGlu-gGlu-gGlu-gGlu-eLys(1,2)]",170 pM,210 pM,1720 pM,16200 pM,–,53100 pM
"H-Y[Aib]EGTFTSDYSI[Aib]LEKQAQ[Aib]AFVEWLIK([εLys-γGlu-γGlu-γGlu-γGlu-γGlu-γGlu-C20 diacid])GGPSEYVSIRHYYNWLTRQRY-NH2 [Compound 42, Y-Aib-E-G-T-F-T-S-D-Y-S-I-Aib-L-E-K-Q-A-Q-Aib-A-F-V-E-W-L-I-K(1,3)-GGPSEYVSIRHYYNWLTRQRY-NH2.C20DA-gGlu-gGlu-gGlu-gGlu-gGlu-gGlu-eLys(1,2)]",360 pM,150 pM,–,–,–,19000 pM
"H-Y[Aib]EGTFTSDYSI[Aib]LEKQAQ[Aib]AFVEWLIK([εLys-γGlu-γGlu-γGlu-γGlu-γGlu-γGlu-C20 diacid])GGPSSGAS[Aib]RHYYNWLTRQR[dY]-NH2 [Compound 74, Y-Aib-E-G-T-F-T-S-D-Y-S-I-Aib-L-E-K-Q-A-Q-Aib-A-F-V-E-W-L-I-K(1,3)-G-G-P-S-S-G-A-S-Aib-R-H-Y-Y-N-W-L-T-R-Q-R-DTyr-NH2.C20DA-gGlu-gGlu-gGlu-gGlu-gGlu-gGlu-eLys(1,2)]",80 pM,100 pM,620 pM,53400 pM,1130 pM,–
"H-Y[Aib]EGTFTSDYSI[Aib]LEKQAQ[Aib]AFVEWLIK([εLys-γGlu-γGlu-γGlu-γGlu-γGlu-γGlu-C20 diacid])GGPSEGQSIRHYYNWLTRQRY-NH2 [Compound 134, Y-Aib-E-G-T-F-T-S-D-Y-S-I-Aib-L-E-K-Q-A-Q-Aib-A-F-V-E-W-L-I-K(1,3)-GGPSEGQSIRHYYNWLTRQRY-NH2.C20DA-gGlu-gGlu-gGlu-gGlu-gGlu-gGlu-eLys(1,2)]",100 pM,90 pM,830 pM,10100 pM,–,39900 pM
"H-Y[Aib]EGTFTSDYSI[Aib]LEKQAQ[Aib]EFVEWLIK([AEEA-AEEA-γGlu-γGlu-γGlu-γGlu-C20 diacid])GGPSSGASLRHYYNWLTRQRY-NH2 [Compound 205, Y-Aib-E-G-T-F-T-S-D-Y-S-I-Aib-L-E-K-Q-A-Q-Aib-E-F-V-E-W-L-I-K(1,3)-GGPSSGASLRHYYNWLTRQRY-NH2.C20DA-gGlu-gGlu-gGlu-gGlu-OEG-OEG(1,2)]",440 pM,330 pM,–,10600 pM,–,–
"H-Y[Aib]EGTFTSDYSI[Aib]LEKQAQ[Aib]AFVEWLIK([εLys-γGlu-γGlu-γGlu-γGlu-γGlu-γGlu-C20 diacid])GGPSSPASLRHYYNWLTRQRY-NH2 [Compound 95, Y-Aib-E-G-T-F-T-S-D-Y-S-I-Aib-L-E-K-Q-A-Q-Aib-A-F-V-E-W-L-I-K(1,3)-GGPSSPASLRHYYNWLTRQRY-NH2.C20DA-gGlu-gGlu-gGlu-gGlu-gGlu-gGlu-eLys(1,2)]",130 pM,130 pM,750 pM,20600 pM,–,–

# — patent US20240247080A1, “GLP1/GIP/NPY2 RECEPTOR TRIPLE AGONISTS” (Boehringer Ingelheim International GmbH, priority 2022, published 2024)
